Laboratory results taken from PubChem BioAssay AID179 (DTP/NCI, 2004).
Where “and” joins values, the source holds several entries; their conditions need not be identical. Equal values may be shown once. Calls of active or inactive are those of the source.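 Rule for the calls: active = compounds giving half or more protection of infected cells from virus-caused growth loss, again on retest; inactive = the rest.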

Test system: CEM cells HIV-1 protection, formazan growth assay
Assay: NCI AIDS Antiviral Assay
Conditions: for IC50: measured here: growth of uninfected CEM cells
Procedure, shortened: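 Steps: treat uninfected and HIV-1-infected human CEM cells at five drug levels; quantify growth by soluble formazan; retest any compound reaching 50% protection; classify actives from the retest.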

SMILES	EC50 [µM]	IC50	outcome
COC(=O)C(=O)C(C(=O)C(=O)Nc1ccc([N+](=O)[O-])cc1[N+](=O)[O-])c1nc2ccc(Cl)cc2[nH]c1=O (stereo unspecified)	> 132	> 132 µM	–
CCOP(=O)(CN1CCNCCN(CP(=O)(OCC)OCC)CC1)OCC	> 100	> 100 µM	–
O=C(O)CN(c1ccc(Cl)cc1)S(=O)(=O)c1ccccc1	–	–	inactive
S=C(N/N=C\C=N/NC(=S)N1CCCCCC1)N1CCCCCC1	> 100	14.1 µM	–
C=CC1(CC)/C(=N\O)C(CC)(CC)C(=O)N1O (stereo unspecified)	> 1050	> 1050 µM	–
N#CCC(=O)N1CCCCCCC1	> 1380	> 1380 µM	–
COc1cc2oc(=O)cc(C)c2cc1O	> 871	138 µM	–
CCC1C2C=CC(CC2)N1S(=O)(=O)c1ccc(C)cc1 (stereo unspecified)	> 64.6	36.3 µM	–
CCSc1cc(=O)n(C)c(=O)n1C	–	–	inactive
N#Cc1nc(CCc2nc(C#N)c(N)o2)oc1N	> 200	> 200 µM	–
O=C1N=C(C=c2ccc(=Cc3[nH]c(=O)n(CN4CCCCC4)c3O)cc2)C(=O)N1CN1CCCCC1	> 100	22.4 µM	–
CCCCCC(=O)OC1(C(C)=O)CCC2C3CCC4=CC(=O)CCC4C3CCC21C (stereo unspecified)	> 200	14.5 µM	–
COc1cc(/C=C/C(=O)c2sc(NNC(C)=O)nc2C)ccc1O	> 20.9	> 20.9 µM	–
COc1ccc(CCN2CCOCC2)cc1	> 200	> 200 µM	–
CCOC(=O)/C(=C\c1ccc(O)c(OC)c1)C(=O)c1ccccc1	> 288	41.7 µM	–
N.N.N.N.N.O=C([O-])c1nn[n-]n1.[Cl-].[Co+3]	> 16.2	> 16.2 µM	–
O=C1Oc2ccccc2[C@@H]2[C@H]1[C@@H]1C(=O)Oc3ccccc3[C@@H]12	> 46.8	> 46.8 µM	–
O=[N+]([O-])c1cc2c(c([N+](=O)[O-])c1)NCc1ccccc1O2	> 200	> 200 µM	–
CC[C@@H](CCCC[C@@H]1CC[C@H]2CC(=O)C[C@@H]12)OC	> 200	186 µM	–
CCN1CCCn2c(=S)[nH]c3cc(Br)cc1c32	57.5	97.7 µM	–
O=C1NCCCCC1CC/C=C/c1ccccc1 (stereo unspecified)	> 148	95.5 µM	–
CCC1SC(C)C(=O)NC1=O (stereo unspecified)	> 661	> 661 µM	–
CCOC(=O)/C=C/c1ccc(C#N)cc1	–	–	inactive

SMILES	EC50 [µM]	IC50	outcome
Nc1ccc(-c2nc3ccccc3s2)cc1S(=O)(=O)O	> 200	60.3 µM	–
CCCCCCC(=O)CC(=O)C(=O)Nc1ccccc1C	> 25.1	> 25.1 µM	–
CCC(C#N)NCc1cccc(CNC(C#N)CC)c1 (stereo unspecified)	> 200	> 200 µM	–
CC(C)(C)OC(=O)NC1CCC[C@H]1O (stereo partly specified)	–	–	inactive
O=C(O)CN(CCNC(=O)OCC1c2ccccc2-c2ccccc21)CCNC(=O)OCC1c2ccccc2-c2ccccc21	> 200	39.8 µM	–
CCOC(=O)n1c2ccccc2c(=O)n1CCO	> 200	> 200 µM	–
Clc1ccc(C=Nc2ccc(SSc3ccc(N=Cc4ccc(Cl)cc4)cc3)cc2)cc1	> 200	22.4 µM	–
O=C1CCC(c2ccccc2)C(O)(C(=O)O)C1 (stereo unspecified)	> 389	> 389 µM	–
CC1=C(O)C(=O)C(C2=C(O)C(=O)C(C)=C(O)C2=O)=C(O)C1=O	> 263	145 µM	–
c1scc2c1COCCOCCOCCOCc1cscc1COCCOCCOCCOC2	> 347	> 347 µM	–
Cc1c(-c2coc(-c3ccccc3)n2)c(=O)n(-c2ccccc2)n1C	> 107	> 107 µM	–
Cc1nc2sccn2c1C(N)=O	> 200	> 200 µM	–
CN(CCCNc1ccc2ncn3c4ccccc4c(=O)c1c23)CCCN1C(=O)c2cccc3cc([N+](=O)[O-])cc(c23)C1=O	0.01	0.0316 µM	–
O=C(Nc1ccccc1)c1cc2cc(O)c(O)cc2cn1	> 158	7.41 µM	–
CCOC(=O)C/C(C)=N\NS(=O)(=O)c1ccc(N)cc1	> 417	> 417 µM	–
O=C1NC(=O)c2c1c1cnn(-c3ccccc3)c1n1cccc21	> 74.1	> 74.1 µM	–
CCCC/C=C(/CCCNCCCC)[Si](C)(C)C	> 479	240 µM	–
C(=NCCN=Cc1cccc2ccccc12)c1cccc2ccccc12	–	–	inactive
N#Cc1c(-c2ccc(Cl)cc2Cl)nc2[nH][nH]c(=S)n2c1=O	> 100	> 100 µM	–
C1SSCC2=C1CSSC2	> 13.2	> 13.2 µM	–
CC1CCCc2c(-c3ccc(Cl)cc3)nc(N)c(C#N)c21 (stereo unspecified)	> 200	26.3 µM	–
CC1CN(c2ccc(Cl)cc2)CC(C)(C)OC(=O)O1 (stereo unspecified)	> 331	21.4 µM	–
O=[N+]([O-])c1ccc2cnn(C[N+]34CN5CN(CN(C5)C3)C4)c2c1	–	–	inactive

SMILES	EC50 [µM]	IC50	outcome
N#C/C(=C\c1cccc(Br)c1)c1nc2ccccc2c(=O)[nH]1	–	–	inactive
NC(=O)CCC(NS(=O)(=O)c1ccc(NC(=O)c2ccccc2)cc1)C(=O)O (stereo unspecified)	> 617	> 617 µM	–
CSCCC1OCC2OC(n3ccc(=O)[nH]c3=O)CC2N1O (stereo unspecified)	> 200	> 200 µM	–
CCC1(C)C(C#N)(C#N)C1(C#N)C#N	> 200	1.29 µM	–
C=C(C)C(C(=O)OC(c1ccccc1)c1ccccc1)N1C(=O)C(NC(=O)COc2ccccc2)C1SSC(C)(C)C (stereo unspecified)	> 200	72.4 µM	–
Cc1cc(S(=O)(=O)Nc2n[nH]c(Nc3ccc(Cl)cc3)n2)c(S)cc1Cl	> 100	> 100 µM	–
CN1c2ccccc2C2=C(C3=C(CS2)C(=O)CCS3)S1(=O)=O	> 38.9	> 38.9 µM	–
ClCCCCCc1c2nc(c(CCCCCCl)c3ccc([nH]3)c(CCCCCCl)c3ccc([nH]3)c(CCCCCCl)c3nc1C=C3)C=C2	> 200	> 200 µM	–
O=C(O)c1ccccc1NS(=O)(=O)c1ccc([N+](=O)[O-])cc1	–	–	inactive
c1ccc(-c2cnnc3c4ccccc4nn23)cc1	> 200	> 200 µM	–
CC(CN1CCCC1)C(O)(Cc1ccccc1)c1ccc(Cl)cc1 (stereo unspecified)	> 200	30.9 µM	–
O=C1NCCS(=O)(=O)N[C@@H](CC2=CC=CCC2)C(=O)N2CCCC12 (stereo partly specified)	> 708	> 708 µM	–
COC(=O)c1nc2c(C)c(O)c(Oc3c(C)c(O)c(O)c([C@H](C)CCC=C(C)C)c3O)c([C@H](C)CCC=C(C)C)c2o1	> 200	7.94 µM	–
COc1ccc(C(OCC2OC(N3CN4C(=NC3=O)N(C(=O)C(C)C)C(OC(=O)C(C)C)C4OC(=O)C(C)C)CC2OP(OC)N(C(C)C)C(C)C)(c2ccccc2)c2ccc(OC)cc2)cc1 (stereo unspecified)	> 100	> 100 µM	–
COCCNC1CCC2(SCCS2)c2[nH]c3ccccc3c21 (stereo unspecified)	> 200	39.8 µM	–
N=c1n(CC(=O)NC23CC4CC(CC(C4)C2)C3)c2ccccc2n1Cc1ccccc1	> 79.4	14.1 µM	–
c1ccc(C2COC(c3ccc4c(c3)OCO4)O2)cc1 (stereo unspecified)	> 200	162 µM	–
CCCCCCCCCC=C(c1cc(Br)c(O)c(C(=O)O)c1)c1cc(Br)c(O)c(C(=O)O)c1	141	191 µM	–
Clc1ncnc2c1ncn2CCCCCCCCCCCCn1cnc2c(Cl)ncnc21	–	–	inactive
O[C@H]1[C@@H](O)C2(C[C@@H]1Br)OC(COCc1ccccc1)[C@@H](COCc1ccccc1)O2 (stereo partly specified)	–	–	inactive
CCCCOC(=O)CSSCC(=O)OCCCC	> 200	51.3 µM	–
O=C1C(c2ccccc2)=C(c2ccccc2)C(c2ccc(Sc3ccc(C4=C(c5ccccc5)C(=O)C(c5ccccc5)=C4c4ccccc4)cc3)cc2)=C1c1ccccc1	> 1.82	> 1.82 µM	–
COc1ccc2c(c1)CSC(c1ccccc1)C2=O (stereo unspecified)	> 97.7	55 µM	–

SMILES	EC50 [µM]	IC50	outcome
CN1C(=O)/C(=C2\SC(=O)N(CN3CCOCC3)C2=O)c2cc(Br)ccc21	> 200	26.3 µM	–
CC(=O)CC(=O)CCCC(=O)Nc1ccc(Cl)cc1C	–	–	inactive
Nc1ncnc2ccc(Sc3ccc4ncnc(N)c4c3)cc12	> 100	> 100 µM	–
CN(C)C=Nc1c2c(nc3ccccc13)CCCC2	> 200	> 200 µM	–
COC(OC)C1OC(CO)C(n2ccc(N)nc2=O)C1O (stereo unspecified)	> 200	> 200 µM	–
OC1C2C=CCC1CCC2 (stereo unspecified)	–	–	inactive
O=c1[nH]nc(-c2ccccc2)c(-c2ccccc2)c1-n1nc(-c2ccccc2)c2ccccc2c1=O	> 10.7	> 10.7 µM	–
COc1ccc(C(=O)C/C(=N/NC(N)=S)C(=O)Nc2ccccc2)cc1	> 25.1	> 25.1 µM	–
O=C(NNC(=O)c1ccccc1O)c1cccs1	> 200	16.2 µM	–
CCOC(=O)NC(OC)(C(F)(F)F)C(F)(F)F	> 200	> 200 µM	–
CC(C)[Si](CC1=CCCCC12C(=O)N(COCC[Si](C)(C)C)c1ccccc12)(C(C)C)C(C)C (stereo unspecified)	> 200	> 200 µM	–
CC(=O)Nc1ccc2oc3ccc(Cl)cc3c(=O)c2c1	> 174	77.6 µM	–
Cn1c2ccccc2c2nnc(N/N=C/c3ccccn3)nc21	> 200	0.115 µM	–
CC(=O)OC(C)(C)/C=C/C(=O)[C@](C)(O)[C@H]1[C@H](O)C[C@@]2(C)[C@@H]3CC=C4[C@@H](C[C@H](O)C(=O)C4(C)C)[C@]3(C)C(=O)C[C@]12C	> 0.2	0.00955 µM	–
CCOC(=O)c1c(SCC#N)n(-c2ccccc2)c(=S)n(-c2ccccc2)c1=O	> 200	13.8 µM	–
NCCCCNCCCN1CCOC1=O	> 200	> 200 µM	–
O=S(=O)(O)C(O)CCC(O)S(=O)(=O)O (stereo unspecified)	> 200	40.7 µM	–
N#C/C(=C1\N=C(c2ccccc2O)Oc2ccccc21)c1ccc([N+](=O)[O-])cc1	> 100	> 100 µM	–
N#Cc1ccc(Sc2nc3ccccc3[nH]2)cc1	–	–	inactive
CC(=O)OCC1OC(n2c3c(cc(C#N)c2=S)CCCC3)C(OC(C)=O)C(OC(C)=O)C1OC(C)=O (stereo unspecified)	> 200	87.1 µM and > 200 µM	–
CC(Oc1cc2oc(=O)cc(-c3ccccc3)c2cc1Cl)C(=O)O (stereo unspecified)	–	–	inactive
